Laboratory results from ChEMBL document CHEMBL1129177, “Novel analogs of cyclic-ADP-ribose: 9-Cyclic etheno-ADP-ribose and cyclic etheno-CDP-ribose” (Bioorg Med Chem Lett, 1996).

Species on record: Rattus norvegicus
Assay: Dose response for [Ca2+] release from rat brain microsomes was determined
Type: functional

| SMILES | EC50 |
| --- | --- |
| O=P(O)(O)O[C@@H]1[C@H](O)[C@H](O)[C@@H](OP(=O)(O)O)[C@H](OP(=O)(O)O)[C@H]1O [INS(1,4,5)P3] | 0.09 µM |
| O=P1([O-])OC[C@H]2OC([C@H](O)[C@@H]2O)[n+]2ccn3cnc4c(ncn4C4O[C@H](COP(=O)(O)O1)[C@@H](O)[C@H]4O)c32 | 8 µM |
| Nc1c2ncn3c2nc[n+]1[C@@H]1O[C@H](COP(=O)([O-])OP(=O)(O)OC[C@H]2O[C@@H]3[C@H](O)[C@@H]2O)[C@@H](O)[C@H]1O | 22 µM |
